This note sets out measurements from paper PMC4849433, “Phloem Proteomics Reveals New Lipid-Binding Proteins with a Putative Role in Lipid-Mediated Signaling” (Frontiers in Plant Science, 2016).

The structures appear in SMILES notation.

What all share (assay): liposome co-sedimentation with anti-His Western blot; protein-lipid overlay
Assay type in all cases: binding

For one assay, the target named is T1, GDSL-lipase (Arabidopsis thaliana, UniProt Q9C7N5).
T1 construct: gene At1g29660; 26-residue predicted signal peptide removed; pET15b His tag; E. coli BL21(DE3)pLysS; Ni-NTA purified
T1 sequence (Q9C7N5 27-364): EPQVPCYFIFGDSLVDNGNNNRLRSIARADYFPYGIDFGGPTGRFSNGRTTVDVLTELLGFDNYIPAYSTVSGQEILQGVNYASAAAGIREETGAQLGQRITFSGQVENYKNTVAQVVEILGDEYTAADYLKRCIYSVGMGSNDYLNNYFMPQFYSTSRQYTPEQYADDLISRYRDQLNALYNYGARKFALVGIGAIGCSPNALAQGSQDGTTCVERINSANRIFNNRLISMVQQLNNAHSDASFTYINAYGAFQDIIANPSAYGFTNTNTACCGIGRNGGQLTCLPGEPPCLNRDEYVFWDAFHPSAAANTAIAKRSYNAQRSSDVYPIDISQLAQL
The settings on record: pH 7.0, 0.1 M NaCl, 30 °C, 30 min; 10 μg protein; lipid in liposomes.

In the next assay the target is T2, PIG-P-like protein (Arabidopsis thaliana, UniProt A0A1P8B1E2).
T2 construct: gene TRM18; coding region, no signal peptide; pET15b His tag; E. coli BL21(DE3)pLysS; Ni-NTA purified; 50 kDa
T2 sequence (A0A1P8B1E2 1-464): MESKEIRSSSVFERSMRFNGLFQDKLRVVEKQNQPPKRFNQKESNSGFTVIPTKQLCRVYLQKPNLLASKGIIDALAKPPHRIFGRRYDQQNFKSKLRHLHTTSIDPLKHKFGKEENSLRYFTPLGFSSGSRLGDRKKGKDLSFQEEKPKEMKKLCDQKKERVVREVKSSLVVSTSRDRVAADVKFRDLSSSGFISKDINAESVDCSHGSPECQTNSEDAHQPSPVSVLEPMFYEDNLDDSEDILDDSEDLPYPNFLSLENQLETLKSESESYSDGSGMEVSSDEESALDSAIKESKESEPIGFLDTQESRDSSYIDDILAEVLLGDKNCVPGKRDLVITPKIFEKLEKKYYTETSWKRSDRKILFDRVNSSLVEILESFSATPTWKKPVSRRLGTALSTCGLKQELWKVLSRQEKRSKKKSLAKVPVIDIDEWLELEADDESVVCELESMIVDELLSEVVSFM
The settings on record: pH 7.0, 0.1 M NaCl, 30 °C, 30 min; 1 μg protein; lipid in liposomes.

The target of assay [1] is T3, PLAFP (phloem lipid-associated family protein) (Arabidopsis thaliana, UniProt O65660).
T3 construct: gene PLAT1; 23-residue predicted signal peptide removed; pET15b His tag; E. coli OrigamiB(DE3)pLysS; HisLink purified
T3 sequence (O65660 24-181): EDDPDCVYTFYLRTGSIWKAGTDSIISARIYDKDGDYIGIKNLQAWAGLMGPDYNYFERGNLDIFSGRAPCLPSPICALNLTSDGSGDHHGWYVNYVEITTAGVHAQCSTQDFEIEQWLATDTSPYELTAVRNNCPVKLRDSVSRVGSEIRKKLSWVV
The settings on record: pH 7.0, 0.1 M NaCl, 30 °C, 30 min; 1 μg protein; PtdOH mixed into PtdCho liposomes; figure modified from Benning et al. 2012 (same laboratory).

Consider `CCCCCCCC/C=C\CCCCCCCC(=O)OC[C@H](COP(=O)(O)O)OC(=O)CCCCCCC/C=C\CCCCCCCC` [PtdOH], for which the “liposome co-sedimentation with anti-His Western blot; protein-lipid overlay” value on GDSL-lipase was “the GDSL-lipase does associate with PtdOH-containing liposomes (Figure 1G)”; at PIG-P-like protein it was “PIG-P binds to liposomes containing PtdOH or PtdSer”; in assay [1], “when PtdOH was included in the liposome, PLAFP bound”.
